From PubChem BioAssay (NCI)
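Assay format: 96-well plates, 48-hour exposure. TGI: concentration producing complete growth inhibition.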

Legend:
Assay in all cases: inhibition of tumour cell growth, NCI panel, 48 h
T-47D breast = test system: T-47D breast
UO-31 renal = test system: UO-31 renal
HCT-15 colon = test system: HCT-15 colon
COLO 205 colon = test system: COLO 205 colon
SF-268 CNS = test system: SF-268 CNS
KM12 colon = test system: KM12 colon
HS 578T breast = test system: HS 578T breast
SK-OV-3 ovarian = test system: SK-OV-3 ovarian
MDA-MB-231 breast = test system: MDA-MB-231 breast
M14 melanoma = test system: M14 melanoma
UACC-62 melanoma = test system: UACC-62 melanoma
NCI/ADR-RES ovarian = test system: NCI/ADR-RES ovarian
OVCAR-8 ovarian = test system: OVCAR-8 ovarian
SN12C renal = test system: SN12C renal
DU-145 prostate = test system: DU-145 prostate

Row | Compound | TGI (T-47D breast) [µM] | TGI (UO-31 renal) [µM] | TGI (HCT-15 colon) [µM] | TGI (COLO 205 colon) [µM] | TGI (SF-268 CNS) [µM] | TGI (KM12 colon) [µM] | TGI (HS 578T breast) [µM] | TGI (SK-OV-3 ovarian) [µM] | TGI (MDA-MB-231 breast) [µM] | TGI (M14 melanoma) [µM] | TGI (UACC-62 melanoma) [µM] | TGI (NCI/ADR-RES ovarian) [µM] | TGI (OVCAR-8 ovarian) [µM] | TGI (SN12C renal) [µM] | TGI (DU-145 prostate) [µM]
1 | O=C(O)c1nc2cc(C(F)(F)F)ccc2nc1Nc1ccc(Cl)c(Cl)c1 | 36.8 | 27.6 | 24.8 | 30.2 | 36.4 | 26.2 | 37.8 | 30.7 | 48.8 | 26 | 25 | 23.2 | 26 |  | 
2 | C=C(C)C#CC(O)(C(=O)OC1CCN(C)CC1)C(C)C (stereo not given) | > 100 | > 100 | > 100 | > 100 | > 100 | > 100 |  | > 100 | > 100 | > 100 | > 100 | 85.6 | > 100 | > 100 | > 100
3 | O=C1CSC(/C=C/c2ccccc2)N1c1ccc(-c2ccc(-n3c(-c4ccccc4)nc4ccccc4c3=O)cc2)cc1 (stereo not given) | > 100 | 50.6 | 66.8 | 36.6 | > 100 | 35.8 |  | > 100 | > 100 | 35.4 | > 100 | > 100 | 92.7 | > 100 | > 100
4 | COc1ccc(-c2cnoc2-c2ccc(OC)c(OC)c2)cc1OC |  | 41.6 | 9.01 | 3.86 | 15 | 16.9 |  | 5.41 |  | 5.39 | 1.78 |  | 40.9 | 33.7 | 
5 | COC(=O)Nc1nc2ccc(Oc3ccc4nc(NC(=O)OC)[nH]c4c3)cc2[nH]1 | > 100 | > 100 | > 100 | 7.59 |  | > 62.5 |  | > 100 | 11 | > 29.6 | > 100 | > 100 | > 100 | > 100 | 6.09
6 | CC1C2=C(CC(C)(C)CC2=O)NC2=C1C(=O)CC(C)(C)C2 |  | > 100 | > 100 |  | > 100 | > 100 | > 100 | > 100 |  | > 100 | > 100 | > 100 | > 100 | > 100 | 
7 | O=c1[nH][nH]c(=O)[nH]1 |  | > 100 | > 100 | > 100 | > 100 | > 100 |  | > 100 |  | > 100 | > 100 |  |  |  | 
8 | CNC(=O)CCNC(=O)CCC(=O)N(C)C | > 100 | > 100 | > 100 | > 100 | > 100 | > 100 |  | > 100 | > 100 | > 100 | > 100 | > 100 | > 100 | > 100 | > 100
9 | C=CCC1C(=O)C(C(=O)OC)N2CCc3c([nH]c4ccccc34)C12 (stereo not given) |  | > 100 | > 100 | > 100 | > 100 | > 100 |  | > 100 |  | > 100 | > 100 |  | > 100 | > 100 | 
10 | COC1(C(C)(C)C)C=C(C(C)(C)C)P(=O)(O)O1 (stereo not given) | > 100 |  | > 100 | > 100 | > 100 | > 100 | > 100 | > 100 |  | > 100 | > 100 | > 100 | > 100 | > 100 | > 100
11 | NCCC(=O)N[C@H](Cc1cc(O)c(O)c(SCC(NC(=O)CC[C@H](N)C(=O)O)C(=O)NCC(=O)O)c1)C(=O)O (stereo not given in full) |  | > 50 | > 50 | > 50 | > 50 | > 50 |  | > 50 | > 50 | > 50 | > 50 | > 50 |  | > 50 | > 50
12 | COc1ccc(N(C)CN(C)c2nc(N(C)C)nc(N(C)C)n2)cc1 |  | > 100 | > 100 | > 100 | > 100 | > 100 |  | > 100 |  | > 100 | > 100 |  | > 100 | > 100 | 
13 | CC1(c2cccc3c2C2(O)C=CC4(CCC32)OCCO4)OCCO1 (stereo not given) |  | > 100 | > 100 | > 100 | > 100 | > 100 |  | > 100 |  | > 100 | > 100 |  | > 100 | > 100 | 
14 | CCN(CC)c1ccc2c(c1)OC(=O)C(c1nnc(-c3ccc([N+](=O)[O-])cc3)o1)C2 (stereo not given) |  | > 100 | > 100 | > 100 | > 100 | > 100 | > 100 | > 100 | > 100 | > 100 | > 100 | > 100 | > 100 |  | > 100
